Experimental data reported in PMC11093748, “De novo identification of CD4^+ T cell epitopes” (Nature Methods, 2024).

How the values were obtained:
[1] = test system: GSE.6H9 TCR; assay: Single SABR-II co-incubation, NFAT-GFP Jurkat (HLA-DQ8); assay type: cell-based, human; conditions: GSE 6.H9 TCR
From the text: (§1) We have previously described SABRs, which are chimeric receptors containing an extracellular pMHC complex attached to an intracellular CD28-CD3ζ signaling domain. […] We sought to expand this platform to allow antigen discovery for MHC/HLA-II with seamless integration with class I alleles. Here, we created SABRs to present epitopes in MHC-II alleles, by covalently linking the epitope to the β-chain of MHC-II that is attached to the CD28-CD3ζ signaling domains downstream, along with a 2A peptide-linked MHC-II α-chain (Fig. 1a,b). To test whether SABR-IIs could present epitopes to TCRs and induce a signal, we expressed them using lentiviral vectors in NFAT–GFP Jurkat cells, which express green fluorescent protein (GFP) upon NFAT activation and translocation downstream of CD3ζ activation (a kind gift from Y. Chen and A. Weiss). We constructed murine SABR-IIs presenting epitopes in I-Ab, I-Ad and I-Ag7 (Ova, […][41]; ATEG, […][42]; and 2.5mimo, […][43], respectively). We co-incubated the SABR-II-expressing NFAT–GFP Jurkat cells with a separate population of Jurkat cells expressing either the BDC2.5 TCR (recognizes I-Ag7-2.5mimo), OT-II TCR (recognizes I-Ab-Ova), 5-4-E8 TCR (recognizes I-Ad-ATEG) or no TCR. […] The signal from the NFAT–GFP reporter offered minimal background in absence of a cognate TCR and correlated with surface SABR expression in the presence of a cognate TCR (Extended Data Fig. 1c–e). […] We confirmed the ability of the DQ8-InsB9:23 SABR-II to present the epitope to two previously described, T1D patient-derived TCRs GSE.6H9 and GSE.20D11 (ref. [46]).
(§2) For SABR library screens, 3 × 10^6 NFAT–GFP Jurkat cells expressing the SABR library were labeled with CellTrace Violet (BioLegend) according to the manufacturer’s protocol before incubation with 3 × 10^6 Jurkat cells expressing the TCR of interest. These mixtures were incubated in a six-well plate for 16–20 h. Cells were stained with anti-CD69-APC-Cy7 where indicated (BioLegend) and the top 1–2% of GFP^+CD69^+ cells were sorted for genomic DNA extraction, indexing and sequencing (see below). Multiplexed assays were scaled on a per-TCR basis (for example 3 × 10^6 for each of three TCRs against 9 × 10^6 library cells). For single SABR assays, unless otherwise defined, 5 × 10^5 SABR expressing NFAT–GFP Jurkat cells (or 5KC cells) were labeled with CellTrace Violet (BioLegend) according to the manufacturer’s protocol before incubation with 5 × 10^5 TCR-expressing Jurkat cells (or 5KC cells) in a round-bottom 96-well plate for 16–20 h. Cells were stained with anti-CD69-APC-Cy7 when indicated and acquired on the Attune NxT flow cytometer (Thermo Fisher Scientific). All flow analysis was performed using FlowJo (BD). For Daudi cell co-culture, 1 × 10^6 Jurkat cells expressing the TCR of interest were incubated with 1 × 10^6 Daudi cells expressing a SABR of interest for 3 days. On day 3, cells were labeled with anti-RT1B-PE and anti-Fas-APC-Cy7 before being acquired on the Attune NxT flow cytometer.

[2] = test system: GSE.20D11 TCR; assay: as above; assay type: cell-based, human; conditions: GSE 20.D11 TCR
From the text: as §1, §2

[3] = test system: TCR2; assay: I-Ag7 SABR-II HIP library screen, enrichment score; assay type: cell-based, mouse; conditions: TCR_Mean of 3 replicates minus PREDICTED_TCR (slope 0.896988, intercept 4.04602e-5)
From the text: (§3) Given the predominance of HIP-reactive TCRs, we hypothesized that there may be other TCRs that respond to HIPs that were not encoded in our initial library configuration. While the initial I-Ag7 SABR-II library consisted of a number of HIPs, HIP formation is thought to be more widespread in pancreatic β-cells[52],[70]. Therefore, we sought to construct a defined, HIP-focused library to probe whether there were any undiscovered HIP-reactive TCRs that could be recognized by the clonally expanded TCR in our dataset. To test this, we utilized a published proteomic dataset, which predicted that several proteins that were highly expressed in secretory granules of β-cells may contribute to HIP formation. Using their predictions, we built a theoretical HIP library, in which all possible ‘left’ halves of the insulin C chain derived from natural cleavage products were fused to ‘right’ halves derived from secretory granule proteins (Fig. 5a). This 2,561-epitope library (12–25 amino acids per epitope) consisted of only HIPs and a small number of positive control epitopes (Supplementary Table 5). We screened the top three clonally expanded TCRs (TCR1, TCR2 and TCR3) against this library, as these TCRs had not been de-convoluted using the original library. […] To confirm that the HIP itself was important for the cognate interaction, we cloned single 14-mer epitopes into SABR-IIs consisting of seven amino acids of the left portion of the HIP and seven amino acids of the right portion of the HIP. In this way, no nine amino acids from either peptide sequence alone could occupy the binding pocket of I-Ag7, ensuring that TCR reactivity spanned the HIP junction. […] Of note, in all the epitopes that were tested, the ‘left’ half derived from insulin C was conserved, whereas the ‘right’ halves were derived from several other proteins (Fig. 5d). […] Moreover, the promiscuous binding of TCR3 to HIPs corroborates evidence from other NOD mouse-derived TCRs reacting to multiple HIPs[72].
(§4) To generate the I-Ag7 restricted SABR library, we combined all Immune Epitope Database epitopes with a published immunopeptidome generated by Wan et al.[51]. Sequences were filtered remove all post-translational modifications except deamidation and HIPs and trimmed between 9–25 amino acid lengths. For the insulin C HIP and HLA-DQ8 library, non-contiguous epitopes from Wiles et al.[66] as well as all Immune Epitope Database epitopes were combined to generate the epitope list. Epitope sequences were back-translated using the backtranslate_fast.py script.
as §2, with “cytometer. […]” for “cytometer.”

[4] = test system: TCR1; assay: I-Ag7 SABR-II HIP library screen, enrichment score; assay type: cell-based, mouse; conditions: TCR_Mean of 3 replicates minus PREDICTED_TCR (slope 0.931777, intercept 2.67961e-5)
From the text: as §3, §4
as §2, with “cytometer. […]” for “cytometer.”

[5] = test system: Jurkat cells, No TCR; assay: Single SABR-II co-incubation, background without TCR; assay type: cell-based, human; conditions: No TCR
Outline: (§5)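 Single SABR-II constructs for putative cognate epitopes were expressed in CellTrace Violet-labelled NFAT–GFP Jurkat cells and co-incubated 1:1 (5 × 10^5 each) with TCR-expressing Jurkat cells for 16–20 h. GFP (with CD69 staining when indicated) was measured by flow cytometry. Wells with GFP above the no-TCR control were scored positive.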

[6] = test system: TCR2; assay: Single SABR-II co-incubation, NFAT-GFP Jurkat; assay type: cell-based, mouse; conditions: TCR 2, Ext. Data Fig. 6C, 18-20 hr
Outline: as §5

[7] = test system: OT-II TCR; assay: Single SABR-II co-incubation, NFAT-GFP Jurkat; assay type: cell-based, mouse; conditions: I-Ab SABR-II; 18-20 h
From the text: (§6) We have previously described SABRs, which are chimeric receptors containing an extracellular pMHC complex attached to an intracellular CD28-CD3ζ signaling domain. […] We sought to expand this platform to allow antigen discovery for MHC/HLA-II with seamless integration with class I alleles. Here, we created SABRs to present epitopes in MHC-II alleles, by covalently linking the epitope to the β-chain of MHC-II that is attached to the CD28-CD3ζ signaling domains downstream, along with a 2A peptide-linked MHC-II α-chain (Fig. 1a,b). To test whether SABR-IIs could present epitopes to TCRs and induce a signal, we expressed them using lentiviral vectors in NFAT–GFP Jurkat cells, which express green fluorescent protein (GFP) upon NFAT activation and translocation downstream of CD3ζ activation (a kind gift from Y. Chen and A. Weiss). We constructed murine SABR-IIs presenting epitopes in I-Ab, I-Ad and I-Ag7 (Ova, […][41]; ATEG, […][42]; and 2.5mimo, […][43], respectively). We co-incubated the SABR-II-expressing NFAT–GFP Jurkat cells with a separate population of Jurkat cells expressing either the BDC2.5 TCR (recognizes I-Ag7-2.5mimo), OT-II TCR (recognizes I-Ab-Ova), 5-4-E8 TCR (recognizes I-Ad-ATEG) or no TCR. […]

[8] = test system: 5-4-E8 TCR; assay: Single SABR-II co-incubation, NFAT-GFP Jurkat; assay type: cell-based, mouse; conditions: I-Ad SABR-II; 18-20 h
From the text: as §6

[9] = test system: TCR4; assay: Single SABR-II co-incubation, NFAT-GFP Jurkat; assay type: cell-based, mouse; conditions: TCR 4
Outline: as §5

[10] = test system: TCR15; assay: Single SABR-II co-incubation, NFAT-GFP Jurkat; assay type: cell-based, mouse; conditions: TCR 15, Fig 3B, 18 h
Outline: as §5

[11] = Ext. Data Fig. 6C, 18-20 hr, technical replicate 1
[12] = Ext. Data Fig. 6C, 18-20 hr, technical replicate 2
[13] = Fig 3B, 18 h, biological replicate 1
[14] = Fig 3B, 18 h, biological replicate 2
[15] = Fig 3B, 18 h, biological replicate 3

SHLVEALYLVCERG
Frequency of %GFP+CD69+ cells of SABR-NFAT-GFP-Jurkat cells ([1]; biological replicate 1 of 3): 16.8%
Frequency of %GFP+CD69+ cells of SABR-NFAT-GFP-Jurkat cells ([1]; biological replicate 2 of 3): 29.6%
Frequency of %GFP+CD69+ cells of SABR-NFAT-GFP-Jurkat cells ([1]; biological replicate 3 of 3): 27.9%
Frequency of %GFP+CD69+ cells of SABR-NFAT-GFP-Jurkat cells ([2]; biological replicate 1 of 3): 24.8%
Frequency of %GFP+CD69+ cells of SABR-NFAT-GFP-Jurkat cells ([2]; biological replicate 2 of 3): 42.4%
Frequency of %GFP+CD69+ cells of SABR-NFAT-GFP-Jurkat cells ([2]; biological replicate 3 of 3): 41.1%

PGDLQTLALEVALLDEGHYPVRES
Enrichment score [3]: 0.0008737

EVEDPQVEWSRMDQLAKELT
Enrichment score [4]: 0.0005047

RQNGVLNSWTDQD
%GFP+CD69+ cells of SABR-NFAT-GFP-Jurkat cells [5, 11]: 1.51%
%GFP+CD69+ cells of SABR-NFAT-GFP-Jurkat cells [5, 12]: 1.42%
%GFP+CD69+ cells of SABR-NFAT-GFP-Jurkat cells ([6]; technical replicate 1): 1.56%
%GFP+CD69+ cells of SABR-NFAT-GFP-Jurkat cells ([6]; technical replicate 2): 1.62%

VAQLELGGGPGASEASAKKKDESV
Enrichment score [3]: 0.0007771

EVEDPQVAQLNAARDPNRESLD
Enrichment score [3]: 0.0005844

EVQEKPQELTDQDQSQEESQEG
Enrichment score [4]: 0.0005738

GAGDLQTLALEVEEEGSANRRAED
Enrichment score [3]: 0.0005985

EVEDPQVEQLEGEDDPDRSMK
Enrichment score [3]: 0.000574

ISQAVHAAHAEINEAGR [Ova]
GFP and CD69 expression in SABR-II-expressing NFAT-GFP Jurkat cells (in words) [7]: Robust GFP and CD69 expression

ATEGRVRVNSAYQDK
GFP and CD69 expression in SABR-II-expressing NFAT-GFP Jurkat cells (in words) [8]: Robust GFP and CD69 expression

GDLQTLALEVAQSGKEVKGEEKGE
Enrichment score [4]: 0.0005301

SPGDLQTLALEVPSPKESKEADVA
Enrichment score [4]: 0.0005282

LQTLALNAARD
%GFP+CD69+ cells of SABR-NFAT-GFP-Jurkat cells [5, 11]: 4.02%
%GFP+CD69+ cells of SABR-NFAT-GFP-Jurkat cells [5, 12]: 3.97%
%GFP+CD69+ cells of SABR-NFAT-GFP-Jurkat cells [5, 13]: 2.49%
%GFP+CD69+ cells of SABR-NFAT-GFP-Jurkat cells [5, 14]: 7.87%
%GFP+CD69+ cells of SABR-NFAT-GFP-Jurkat cells [5, 15]: 3.83%
%GFP+CD69+ cells of SABR-NFAT-GFP-Jurkat cells [9, 11]: 22.3%
%GFP+CD69+ cells of SABR-NFAT-GFP-Jurkat cells [9, 12]: 22%
%GFP+CD69+ cells of SABR-NFAT-GFP-Jurkat cells [9, 13]: 42.4%
%GFP+CD69+ cells of SABR-NFAT-GFP-Jurkat cells [9, 14]: 41.7%
%GFP+CD69+ cells of SABR-NFAT-GFP-Jurkat cells [9, 15]: 45.77%
%GFP+CD69+ cells of SABR-NFAT-GFP-Jurkat cells ([10]; biological replicate 1): 43.67%
%GFP+CD69+ cells of SABR-NFAT-GFP-Jurkat cells ([10]; biological replicate 2): 48.77%
%GFP+CD69+ cells of SABR-NFAT-GFP-Jurkat cells ([10]; biological replicate 3): 51.63%

EVEDPQVEQLELSGKEVKGEEKGE
Enrichment score [4]: 0.0005139
